Results taken from US20210379085A1, “HALOGENATED SALICYLANILIDES FOR TREATING THE SYMPTOMS OF DERMATITIS” (Union Therapeutics A/S, priority 2018, published 2021).

What was measured:
[1] = Systemic exposure to niclosamide (serum) after topical application in healthy volunteers; assay type: in vivo; details: human, after topical niclosamide formulations twice daily 7 days and final dose Day 8
Method: The skin biopsies were taken using sterile single use disposable biopsy punches (BP40F, Kai Europe GmbH, Solingen, Germany). For the 6 non-treated healthy volunteers biopsies were taken on Day 1. 10 mL of blood was collected at day 1 for the method validation group to determine niclosamide concentration in the blood.

[2] = test system: lesional skin of patients with moderate atopic dermatitis; experiment: Skin thickness in lesional skin biopsies, Phase II atopic dermatitis study (Example 3); assay type: in vivo, human; details: Day 22, compared to baseline and compared to vehicle; topical niclosamide 2% once daily 3 weeks
Method: (§1) Patients received topical applications of a niclosamide 2% composition and vehicle once daily for 3 weeks, followed by a 1-week follow up period. Topical niclosamide 2% and vehicle was applied on two separate target lesions of atopic dermatitis (lesions of at least 3×3-cm that are at least 2 cm apart, excluding the face, scalp, genitals, hands, and feet). The application areas (5×5-cm) were randomized (1:1) to once daily application of niclosamide 2% or vehicle at 5 mg/cm^2 without occlusion 6 days per week. Patients came to the study site for all study product application for a total of 3 weeks.
Three skin biopsies were collected in all patients (one from lesional skin at baseline, pre-dosing at Day 1, and two from lesional skin at Day 22 (one where topical niclosamide 2% had been applied and one where the vehicle had been applied). The lesional skin biopsies were analysed for skin thickness and inflammation biomarkers.

[3] = test system: skin barrier and inflammation biomarkers in lesional skin biopsies; experiment: qRT-PCR (TLDA) biomarker gene expression in lesional skin biopsies (Example 3); assay type: in vivo, human; details: fold change, topical niclosamide 2% once daily 3 weeks, AD lesional skin
Method: as §1
Skin barrier and inflammation biomarker levels were determined from lesional skin biopsies from application areas.
The skin biopsy samples were analysed by immunohistochemistry (IHC), and by gene expression studies by RT-PCR using TaqMan Low Density Array (TLDA), and by microarray using Affymetrix U133A Plus 2. The immunohistochemistry (IHC) was used to analyse cell biomarkers. The methodologies as disclosed by Guttman-Yassky et al, “Major differences in inflammatory dendritic cells and their products distinguish atopic dermatitis from psoriasis”, The Journal of Allergy and Clinical Immunology, vol. 119, issue 5, pages 1210-1217, 2007, were followed except for that U133A Plus 2-set Gene Chip probe arrays was used instead of U95A-set Gene Chip probe arrays.
Expression values (threshold cycle [Ct]) were normalized to Rplp0 by negatively transforming the Ct values to −dCt (IL17A was normalized to hARP, as analysed by qPCR). The undetected −dCt values were estimated for each gene as the 20% of the minimum across all samples. qRT-PCR expression data were modelled using a mixed effect model with Visit and Treatment Area as a fixed effect and a random intercept for each patient. This formulation intrinsically models the within patient correlation structure as in the case of a paired t-test. This approach introduces less bias than restricting the analysis for those patients who completed the study. Contrasts were used to estimate the fold changes with treatment within each treatment group and conduct hypothesis testing.

[4] = Day 22, vs vehicle-treated lesion
[5] = Day 22 vs baseline, listed as niclosamide

Q: What does the source list for O=C(Nc1ccc([N+](=O)[O-])cc1Cl)c1cc(Cl)ccc1O [Niclosamide, niclosamide]?
A: concentration at 8 day [1]: 0.24 ng/mL; skin thickness [2]: No differences; CAMP expression, Niclosamide vs. Vehicle (qRT-PCR) [3, 4]: −1.33; CCL5 expression, Niclosamide vs. Vehicle (qRT-PCR) [3, 4]: −1.03; CCL17 expression, Niclosamide vs. Vehicle (qRT-PCR) [3, 4]: −1.37; CCL18 expression, Niclosamide vs. Vehicle (qRT-PCR) [3, 4]: −2.02; CCL20 expression, Niclosamide vs. Vehicle (qRT-PCR) [3, 4]: −2.25; CCL22 expression, Niclosamide vs. Vehicle (qRT-PCR) [3, 4]: −1.49; CCL26 expression, Niclosamide vs. Vehicle (qRT-PCR) [3, 4]: −1.49; CXCL1 expression, Niclosamide vs. Vehicle (qRT-PCR) [3, 4]: −1.63; CXCL2 expression, Niclosamide vs. Vehicle (qRT-PCR) [3, 4]: −1.21; CXCL9 expression, Niclosamide vs. Vehicle (qRT-PCR) [3, 4]: 1.16; CXCL10 expression, Niclosamide vs. Vehicle (qRT-PCR) [3, 4]: −1.10; DEFB4A/DEFB4B expression, Niclosamide vs. Vehicle (qRT-PCR) [3, 4]: −2.06; FLG expression, Niclosamide vs. Vehicle (qRT-PCR) [3, 4]: 1.30; FOXP3 expression, Niclosamide vs. Vehicle (qRT-PCR) [3, 4]: −1.14; IFNg expression, Niclosamide vs. Vehicle (qRT-PCR) [3, 4]: 1.19; IL1B expression, Niclosamide vs. Vehicle (qRT-PCR) [3, 4]: −1.01; IL2 expression, Niclosamide vs. Vehicle (qRT-PCR) [3, 4]: −1.36; IL5 expression, Niclosamide vs. Vehicle (qRT-PCR) [3, 4]: −1.47; IL6 expression, Niclosamide vs. Vehicle (qRT-PCR) [3, 4]: −1.24; IL8 expression, Niclosamide vs. Vehicle (qRT-PCR) [3, 4]: −1.46; IL9 expression, Niclosamide vs. Vehicle (qRT-PCR) [3, 4]: −1.17; IL10 expression, Niclosamide vs. Vehicle (qRT-PCR) [3, 4]: −1.51; IL12A expression, Niclosamide vs. Vehicle (qRT-PCR) [3, 4]: 1.09; IL12B expression, Niclosamide vs. Vehicle (qRT-PCR) [3, 4]: −1.42; IL13 expression, Niclosamide vs. Vehicle (qRT-PCR) [3, 4]: −1.59; IL15RA expression, Niclosamide vs. Vehicle (qRT-PCR) [3, 4]: −1.12; IL15 expression, Niclosamide vs. Vehicle (qRT-PCR) [3, 4]: −1.14; IL17A expression, Niclosamide vs. Vehicle (qRT-PCR) [3, 4]: −1.40; IL17C expression, Niclosamide vs. Vehicle (qRT-PCR) [3, 4]: −2.35; IL17F expression, Niclosamide vs. Vehicle (qRT-PCR) [3, 4]: 1.37; IL19 expression, Niclosamide vs. Vehicle (qRT-PCR) [3, 4]: 1.16; IL22 expression, Niclosamide vs. Vehicle (qRT-PCR) [3, 4]: −1.97; IL23A expression, Niclosamide vs. Vehicle (qRT-PCR) [3, 4]: −1.37; IL31 expression, Niclosamide vs. Vehicle (qRT-PCR) [3, 4]: −1.46; IL33 expression, Niclosamide vs. Vehicle (qRT-PCR) [3, 4]: 1.11; KRT16 expression, Niclosamide vs. Vehicle (qRT-PCR) [3, 4]: −1.60; LOR expression, Niclosamide vs. Vehicle (qRT-PCR) [3, 4]: 1.27; MMP12 expression, Niclosamide vs. Vehicle (qRT-PCR) [3, 4]: −1.90; PI3 expression, Niclosamide vs. Vehicle (qRT-PCR) [3, 4]: −1.93; PPL expression, Niclosamide vs. Vehicle (qRT-PCR) [3, 4]: 1.04; S100A7 expression, Niclosamide vs. Vehicle (qRT-PCR) [3, 4]: −2.20; S100A8 expression, Niclosamide vs. Vehicle (qRT-PCR) [3, 4]: −2.02; S100A9 expression, Niclosamide vs. Vehicle (qRT-PCR) [3, 4]: −1.97; S100A12 expression, Niclosamide vs. Vehicle (qRT-PCR) [3, 4]: −2.11; TSLPR expression, Niclosamide vs. Vehicle (qRT-PCR) [3, 4]: −1.36; CAMP expression, Niclosamide vs. Predose (qRT-PCR) ([3]; Day 22 vs baseline): −3.02; CCL5 expression, Niclosamide vs. Predose (qRT-PCR) ([3]; Day 22 vs baseline): −1.22; CCL17 expression, Niclosamide vs. Predose (qRT-PCR) ([3]; Day 22 vs baseline): −2.02; CCL18 expression, Niclosamide vs. Predose (qRT-PCR) ([3]; Day 22 vs baseline): −2.45; CCL20 expression, Niclosamide vs. Predose (qRT-PCR) ([3]; Day 22 vs baseline): −1.96; CCL22 expression, Niclosamide vs. Predose (qRT-PCR) ([3]; Day 22 vs baseline): −1.95; CCL26 expression, Niclosamide vs. Predose (qRT-PCR) ([3]; Day 22 vs baseline): −1.03; CXCL1 expression, Niclosamide vs. Predose (qRT-PCR) ([3]; Day 22 vs baseline): −2.80; CXCL2 expression, Niclosamide vs. Predose (qRT-PCR) ([3]; Day 22 vs baseline): −1.89; CXCL9 expression, Niclosamide vs. Predose (qRT-PCR) ([3]; Day 22 vs baseline): −1.51; CXCL10 expression, Niclosamide vs. Predose (qRT-PCR) ([3]; Day 22 vs baseline): −1.64; DEFB4A/DEFB4B expression, Niclosamide vs. Predose (qRT-PCR) ([3]; Day 22 vs baseline): −4.09; FLG expression, Niclosamide vs. Predose (qRT-PCR) ([3]; Day 22 vs baseline): 1.50; FOXP3 expression, Niclosamide vs. Predose (qRT-PCR) ([3]; Day 22 vs baseline): −1.39; IFNg expression, Niclosamide vs. Predose (qRT-PCR) ([3]; Day 22 vs baseline): −1.11; IL1B expression, Niclosamide vs. Predose (qRT-PCR) ([3]; Day 22 vs baseline): −1.64; IL2 expression, Niclosamide vs. Predose (qRT-PCR) ([3]; Day 22 vs baseline): −1.20; IL5 expression, Niclosamide vs. Predose (qRT-PCR) ([3]; Day 22 vs baseline): −2.38; IL6 expression, Niclosamide vs. Predose (qRT-PCR) ([3]; Day 22 vs baseline): −2.34; IL8 expression, Niclosamide vs. Predose (qRT-PCR) ([3]; Day 22 vs baseline): −3.78; IL9 expression, Niclosamide vs. Predose (qRT-PCR) ([3]; Day 22 vs baseline): −1.91; IL10 expression, Niclosamide vs. Predose (qRT-PCR) ([3]; Day 22 vs baseline): −1.85; IL12A expression, Niclosamide vs. Predose (qRT-PCR) ([3]; Day 22 vs baseline): −1.01; IL12B expression, Niclosamide vs. Predose (qRT-PCR) ([3]; Day 22 vs baseline): −2.01; IL13 expression, Niclosamide vs. Predose (qRT-PCR) ([3]; Day 22 vs baseline): −2.06; IL15RA expression, Niclosamide vs. Predose (qRT-PCR) ([3]; Day 22 vs baseline): −1.46; IL15 expression, Niclosamide vs. Predose (qRT-PCR) ([3]; Day 22 vs baseline): −1.47; IL17A expression, Niclosamide vs. Predose (qRT-PCR) ([3]; Day 22 vs baseline): −2.23; IL17C expression, Niclosamide vs. Predose (qRT-PCR) ([3]; Day 22 vs baseline): −3.24; IL17F expression, Niclosamide vs. Predose (qRT-PCR) ([3]; Day 22 vs baseline): 1.02; IL19 expression, Niclosamide vs. Predose (qRT-PCR) ([3]; Day 22 vs baseline): −3.26; IL22 expression, Niclosamide vs. Predose (qRT-PCR) ([3]; Day 22 vs baseline): −2.86; IL23A expression, Niclosamide vs. Predose (qRT-PCR) ([3]; Day 22 vs baseline): −2.13; IL31 expression, Niclosamide vs. Predose (qRT-PCR) ([3]; Day 22 vs baseline): −1.85; IL33 expression, Niclosamide vs. Predose (qRT-PCR) ([3]; Day 22 vs baseline): −1.08; KRT16 expression, Niclosamide vs. Predose (qRT-PCR) ([3]; Day 22 vs baseline): −3.88; LOR expression, Niclosamide vs. Predose (qRT-PCR) ([3]; Day 22 vs baseline): 1.67; MMP12 expression, Niclosamide vs. Predose (qRT-PCR) ([3]; Day 22 vs baseline): −3.27; PI3 expression, Niclosamide vs. Predose (qRT-PCR) ([3]; Day 22 vs baseline): −4.52; PPL expression, Niclosamide vs. Predose (qRT-PCR) ([3]; Day 22 vs baseline): −1.07; S100A7 expression, Niclosamide vs. Predose (qRT-PCR) ([3]; Day 22 vs baseline): −3.04; S100A8 expression, Niclosamide vs. Predose (qRT-PCR) ([3]; Day 22 vs baseline): −3.85; S100A9 expression, Niclosamide vs. Predose (qRT-PCR) ([3]; Day 22 vs baseline): −3.47; S100A12 expression, Niclosamide vs. Predose (qRT-PCR) ([3]; Day 22 vs baseline): −4.29; TSLPR expression, Niclosamide vs. Predose (qRT-PCR) ([3]; Day 22 vs baseline): −1.82; FLG expression, Niclosamide vs. Predose (qRT-PCR) [3, 5]: increased significantly; LOR expression, Niclosamide vs. Predose (qRT-PCR) [3, 5]: increased significantly
